For orientation: Ki means a measure of affinity in units of concentration, obtained from inhibition or displacement. A low value points to tighter binding. In general, kinact refers to the rate constant of inactivation at saturating inhibitor. As usually defined, the kinact/KI is the second-order rate constant of inactivation.

The values that follow come from patent US12435087B2, “Modulators of DCN-1 and methods of use thereof” (Cellarity, Inc., priority 2023, dated 2025).

The target in test [1] is DCN1 (DCUND1) protein PONY domain (Homo sapiens (Human), UniProt Q96GG9). Briefly: Off-rate measurement of reversible covalent molecules (jump dilution TR-FRET with Cy5 probe). The following applies: binding mode from off-rate measurement. As for the experimental part: A TR-FRET assay was performed to classify the compounds as an irreversible covalent binder, a reversible covalent binder or a reversible binder.
Chain of DCN1 (DCUND1) protein PONY domain (Q96GG9 60-248): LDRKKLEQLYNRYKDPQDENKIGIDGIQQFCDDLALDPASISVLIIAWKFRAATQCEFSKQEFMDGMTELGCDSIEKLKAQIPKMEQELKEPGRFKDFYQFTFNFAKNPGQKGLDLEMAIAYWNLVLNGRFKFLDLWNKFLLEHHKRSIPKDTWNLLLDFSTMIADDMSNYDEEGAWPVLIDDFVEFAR
An assay to measure the off-rate of reversible covalent molecules was developed. A typical covalent compound is assumed to stay bound to a protein for at least the life of that protein in the cell. In reality, there is a range of how long a covalent compounds remains bound before a reverse reaction takes place. Thus, some covalent bonds can be labeled as reversible as their reverse reaction takes place in a measurable amount of time under physiological conditions. The assay capitalizes on the range of covalent binders by using a high affinity covalent binder as a probe to displace the more reversible binders in an adaptation of the jump dilution method.
In this version of the jump dilution method, the increase in covalent probe binding over time was measured through a TR-FRET reaction between the covalent probe and the biotinylated target protein.
The recombinant form of the DCN1 (DCUND1) protein PONY domain was produced using an E. coli expression system at Viva Biotech (China). The DCN1 protein was biotinylated (EZ sulfo-NHS-LC-biotin; Thermofisher) for labeling with streptavidin terbium (Tb) cryptate in the reaction. This biotinylated protein was used in two forms of the TR-FRET assay as described below.
The off-rate measurement is executed in two steps based on the jump dilution method. […] The greatest dilution allowed within the constraints of the assay was chosen. These factors allow a competitive advantage for the covalent probe to replace the test compound when that compound releases from the target protein. The actual measure is the rate of increased TR-FRET signal as the covalent probe replaces the test compound over time. […] The resulting time dependent curve of the TR-FRET signal is fit to the following equation: Y=Y0+(Plateau−Y0)*(1−exp(−K*x))
K is the rate constant (1/unit of time). The residence time is defined as the inverse of K, the rate constant. The half-life is calculated as ln(2)/K.
(In general: In TR-FRET formats the signal depends on donor and acceptor labels being close together.)

The target in test [2] is DCN2 (DCUND2) protein PONY domain (Homo sapiens (Human), UniProt Q6PH85). Description: DCN2 TR-FRET assay, measurement of Kinact/KI. Format: binding. As for the experimental part:
A TR-FRET Assay was performed to evaluate the ability of the compounds to bind DCN-2. The time resolved—Forster's resonance energy transfer (TR-FRET) assay was designed following the protocol established in (Scott et al., Nat Chem Biol. 2017 August; 13(8): 850-857). A recombinant form of the DCN2 (DCUND2) protein PONY domain was produced using an E. coli expression system at Viva Biotech China. The DCN2 protein was biotinylated (EZ sulfo-NHS-LC-biotin; Thermofisher) for labeling with 2.5 nM streptavidin terbium (Tb) cryptate in the reaction. The probe was changed to a non-covalent DCN1 inhibitor labeled with carboxyfluorescein (FAM; Zhou el al., Nat Commun. 2017; 8: 1150). Buffer conditions were modified to enhance protein stability by replacing TritonX with 0.05% Tween20 and increasing NaCl to 200 mM. […] The Kinact and KI measurements were taken to allow for continuous reads over 24 hrs. Plates were read every 5 min up to 1 hr, every 15 min up to 5 hr, and every hour up to 10 hours. Kinact and KI were calculated based on the following equations (Krippendorff B F, et al. Mechanism-based inhibition: deriving K(I) and k(inact) directly from time-dependent IC(50) values. J BiomolScreen. 2009; Mons E et al. A Comprehensive Guide for Assessing Covalent Inhibition in Enzymatic Assays Illustrated with Kinetic Simulations. […] The Kinact and KI values could be estimated from the tight curves of the IC50 values over time. [formula]

Chain of DCN2 (DCUND2) protein PONY domain (Q6PH85 60-248): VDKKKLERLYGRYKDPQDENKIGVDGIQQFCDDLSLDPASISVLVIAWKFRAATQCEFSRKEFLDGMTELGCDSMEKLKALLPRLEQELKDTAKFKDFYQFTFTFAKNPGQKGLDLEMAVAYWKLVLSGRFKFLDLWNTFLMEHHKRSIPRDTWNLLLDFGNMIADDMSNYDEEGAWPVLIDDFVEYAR

Regarding `C/C=C(\CN1CCN(C2COC2)CC1)C(=O)Nc1cccc([C@@H]2c3cnn(-c4ccccc4)c3N(CC)C(=O)[C@H]2NC(=O)c2csc(C(F)(F)F)n2)c1` [Compound I-234, N-((4R,5S)-7-ethyl-4-(3-((E)-2-((4-(oxetan-3-yl)piperazin-1-yl)methyl)but-2-enamido)phenyl)-6-oxo-1-phenyl-4,5,6,7-tetrahydro-1H-pyrazolo[3,4-b]pyridin-5-yl)-2-(trifluoromethyl)thiazole-4-carboxamide], in test [1], the Category result is reported as “irreversible”. Moreover, in test [2], the Ki was more than 0.5 nM, the kinact lay in the range of 0.00167 to 0.00333 s⁻¹ and the kinact/KI lay in the range of 167000 to 3.33e+06 M⁻¹ s⁻¹.
Consider `C=C(CN1CCOCC1)C(=O)Nc1cccc([C@@H]2c3c(C)nn(-c4ccccc4)c3N(CC)C(=O)[C@H]2NC(=O)c2cccc(C(F)(F)F)c2)c1` [Compound I-2, N-((4R,5S)-7-ethyl-3-methyl-4-(3-(2-(morpholinomethyl)acrylamido)phenyl)-6-oxo-1-phenyl-4,5,6,7-tetrahydro-1H-pyrazolo[3,4-b]pyridin-5-yl)-3-(trifluoromethyl)benzamide], for which, in test [1], the Category entry is given as “irreversible”. In test [2], the Ki was more than 0.5 nM, the kinact lay in the range of 0.00333 to 0.005 s⁻¹ and the kinact/KI was 3.33e+06 to 8.33e+06 M⁻¹ s⁻¹.
